In patent publication US20070048360A1, “Pharmaceutical compositions with melting point depressant agents and method of making same” (priority 2005, published 2007):
Read-outs that look alike come from different tables or passages of the source.

Assays:
[1] = cited from earlier work
[2] = Aqueous blending of bulk powdered CFI and active drug, visual and microscopic check; type: physicochemical
[3] = oral; cited from earlier work

## CC(C)Cc1ccc(C(C)C(=O)O)cc1 (stereo not drawn) [Ibuprofen, ibuprofen]
Drug 1% w/w
  ethanol content of hydro-alcoholic mixture needed to solubilize the drug: at least 50 % by weight of the total mixture

## O=C(OCCc1ccccc1)c1ccccc1O [Phenyl ethyl salicylate]
[1]
  Log P: Log P: 4.31

## CCN(CC)CC#CCOC(=O)C(O)(c1ccccc1)C1CCCCC1 (stereo not drawn) [OXY, oxybutynin]
[2]; 30% ethanol
  aspect of composition API:PES 1:1 in ethanol/purified water: small transparent droplets easily re-suspended

## CC(C)(C)C1CCCCC1O (stereo not drawn) [Ortho tertiary butyl cyclohexanol]
[1]
  Log P: Log P: 3.3-3.4

## C[C@]12CC[C@H]3[C@@H](CCC4=CC(=O)CC[C@@]43C)[C@@H]1CC[C@@H]2O [TES, Testosterone]
[2]
  aspect of composition API:PES 1:1 in ethanol/purified water: stable oil droplets

## CCN(CC)CC(=O)Nc1c(C)cccc1C [Lidocaine, lidocaine]
[2]; lidocaine 2.50% w/w and PES 2.50% w/w in water, ambient temperature in the dark
  storage period over which aspect (transparent droplets, no crystallization) was maintained: > 13 month

## COc1ccccc1OCCNCC(O)COc1cccc2[nH]c3ccccc3c12 (stereo not drawn) [CAR, Carvedilol]
Drug 1% w/w
  ethanol content of hydro-alcoholic mixture needed to solubilize the drug: at least 80 % by weight of the total mixture
[2]; 30% ethanol
  aspect of composition API:PES 1:1 in ethanol/purified water: stable oil droplets

## Clc1cccc(Cl)c1N=C1NCCN1 [CLO, clonidine]
Drug 0.5% w/w
  ethanol content of hydro-alcoholic mixture needed to solubilize the drug: at least 50 % by weight of the total mixture
[2]; 5% ethanol
  aspect of composition API:PES 1:1 in ethanol/purified water: stable oil droplets
[2]; 10% ethanol
  aspect of composition API:PES 1:1 in ethanol/purified water: stable oil droplets

## CN1C2CCCC1CC(NC(=O)c1nn(C)c3ccccc13)C2 (stereo not drawn) [GRA, Granisetron]
Drug 0.5% w/w
  ethanol content of hydro-alcoholic mixture needed to solubilize the drug: at least 40 % by weight of the total mixture
[2]; 30% ethanol
  aspect of composition API:PES 1:1 in ethanol/purified water: stable oil droplets

## NCCCC(O)(P(=O)(O)O)P(=O)(O)O [sodium alendronate]
[3]
  fraction of the drug absorbed when administered orally: about 0.6%

## c1ccc2c(c1)CC1COCOC21 (stereo not drawn) [Indeno-m-dioxin tetrahydro]
[1]
  Log P: Log P: 1.33

## CC(=O)CCc1ccc2c(c1)OCO2 [4-(1,3-benzodioxol-5-yl)butan-2-one]
[1]
  Log P: Log P: 1.15

## CCCN(CCC)CCc1cccc2c1CC(=O)N2 [ROP, Ropinirole]
Drug 1% w/w
  ethanol content of hydro-alcoholic mixture needed to solubilize the drug: at least 40 % by weight of the total mixture
[2]; 15% ethanol
  aspect of composition API:PES 1:1 in ethanol/purified water: stable oil droplets
